The record followed here is patent US20080234262A1 (Wyeth, priority 2007, published 2008).

What is called IC50 is the concentration at which inhibition is half-maximal.

Sequence of PI3K (P42336 whole entry): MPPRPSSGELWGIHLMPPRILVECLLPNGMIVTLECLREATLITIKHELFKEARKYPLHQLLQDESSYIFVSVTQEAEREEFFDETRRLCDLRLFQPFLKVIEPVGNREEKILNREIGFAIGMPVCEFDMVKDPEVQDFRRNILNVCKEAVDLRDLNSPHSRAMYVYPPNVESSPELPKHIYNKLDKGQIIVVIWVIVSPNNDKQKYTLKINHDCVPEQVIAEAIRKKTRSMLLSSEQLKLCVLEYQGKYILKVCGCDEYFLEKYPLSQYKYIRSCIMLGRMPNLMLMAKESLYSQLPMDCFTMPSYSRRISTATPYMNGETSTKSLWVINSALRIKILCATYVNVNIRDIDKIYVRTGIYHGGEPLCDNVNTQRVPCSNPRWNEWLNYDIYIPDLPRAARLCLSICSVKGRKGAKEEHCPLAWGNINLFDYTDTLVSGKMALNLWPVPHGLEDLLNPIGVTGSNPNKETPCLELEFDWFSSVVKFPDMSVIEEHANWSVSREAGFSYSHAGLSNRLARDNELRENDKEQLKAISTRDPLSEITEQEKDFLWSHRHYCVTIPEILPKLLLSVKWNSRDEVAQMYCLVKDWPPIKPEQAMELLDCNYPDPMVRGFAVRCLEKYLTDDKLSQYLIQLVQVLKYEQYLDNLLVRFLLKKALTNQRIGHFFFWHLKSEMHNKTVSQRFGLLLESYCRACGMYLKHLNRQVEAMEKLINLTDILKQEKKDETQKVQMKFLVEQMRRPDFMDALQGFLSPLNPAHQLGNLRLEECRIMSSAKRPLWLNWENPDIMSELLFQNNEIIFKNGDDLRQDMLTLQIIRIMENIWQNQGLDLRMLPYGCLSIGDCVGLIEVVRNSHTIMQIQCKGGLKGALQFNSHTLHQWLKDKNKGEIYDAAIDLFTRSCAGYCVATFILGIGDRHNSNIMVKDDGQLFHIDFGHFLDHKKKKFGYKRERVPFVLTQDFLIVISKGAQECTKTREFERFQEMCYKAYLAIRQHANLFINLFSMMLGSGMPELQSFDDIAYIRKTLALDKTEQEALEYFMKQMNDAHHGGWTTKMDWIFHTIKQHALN
Sequence of PI3K (P27986 whole entry partner): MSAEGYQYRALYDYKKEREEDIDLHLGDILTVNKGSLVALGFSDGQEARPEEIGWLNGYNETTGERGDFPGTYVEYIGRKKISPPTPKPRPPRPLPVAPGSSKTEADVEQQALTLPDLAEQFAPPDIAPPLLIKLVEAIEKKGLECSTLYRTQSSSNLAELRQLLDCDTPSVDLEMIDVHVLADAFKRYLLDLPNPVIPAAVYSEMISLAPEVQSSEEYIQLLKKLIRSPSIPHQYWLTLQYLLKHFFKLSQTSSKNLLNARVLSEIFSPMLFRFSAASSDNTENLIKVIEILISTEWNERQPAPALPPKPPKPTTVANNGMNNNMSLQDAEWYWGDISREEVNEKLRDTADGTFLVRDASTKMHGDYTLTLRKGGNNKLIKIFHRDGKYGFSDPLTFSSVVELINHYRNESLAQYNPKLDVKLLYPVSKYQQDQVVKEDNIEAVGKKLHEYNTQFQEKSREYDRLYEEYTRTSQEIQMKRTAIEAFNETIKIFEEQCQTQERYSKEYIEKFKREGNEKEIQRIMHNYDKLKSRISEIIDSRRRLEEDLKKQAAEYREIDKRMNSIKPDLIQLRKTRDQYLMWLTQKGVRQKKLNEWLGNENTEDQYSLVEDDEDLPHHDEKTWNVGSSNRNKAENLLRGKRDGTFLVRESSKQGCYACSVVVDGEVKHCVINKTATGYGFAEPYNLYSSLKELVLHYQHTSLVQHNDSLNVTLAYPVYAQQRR

In one test the test system is breast line MDA468. Kind of test: In vitro cell culture growth assay (MTS), MDA468. The test is classed as cell-based, human. Conditions: Homo sapiens, 72 h, MDA468 cells, three days after drug treatment. Here is the method:
Human tumor cell lines used include prostate lines LNCap and PC3MM2, breast lines MDA468, MCF7, renal line HTB44 (A498), colon line HCT116, and ovarian line OVCAR3. Cells were plated in 96-well culture plates. One day following plating, the inhibitors were added to cells. Three days after drug treatment, viable cell densities were determined by metabolic conversion (by viable cells) of the dye MTS, a well established cell proliferation assay. The assays were performed using an assay kit purchased from Promega Corp. (Madison, Wis.) following the protocol supplied with the kit. The MTS assay results were read in a 96-well plate reader by measuring absorbance at 490 nm. The effect of each treatment was calculated as percent of control growth relative to the vehicle-treated cells grown in the same culture plate.
Compound `CN(C)C(=O)Nc1ccc(-c2nc(N3CCOCC3)c3cnn(C4CCN(Cc5ccccc5)CC4)c3n2)cc1` [Compound 205] registered an IC50 of 8000 nM.

Take `CN(C)CCNC(=O)Nc1ccc(-c2nc(N3CCOCC3)c3cnn(C4CCN(Cc5ccccc5)CC4)c3n2)cc1` [Compound 268, 1-{4-[1-(1-benzylpiperidin-4-yl)-4-morpholin-4-yl-1H-pyrazolo[3,4-d]pyrimidin-6-yl]phenyl}-3-[2-(dimethylamino)ethyl]urea]: 600 nM corresponded to half-maximal inhibition (IC50).

A further test addresses PI3K (Homo sapiens, UniProt P42336). Kind of test: Fluorescence polarization assay for PI3K.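 Also: PI3K kinase reaction on PIP2 with ATP, 30-60 min, product sensed by GST-GRP with red probe in fluorescence polarization (mP), controls without enzyme and at zero time.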 The format is biochemical. The settings on record: PI3Kα; read-out: PI3Kα IC50.
As to `Oc1cncc(-c2nc(N3CCOCC3)c3cnn(C4CCN(Cc5ccccc5)CC4)c3n2)c1` [Compound 930, 5-[1-(1-benzylpiperidin-4-yl)-4-morpholin-4-yl-1H-pyrazolo[3,4-d]pyrimidin-6-yl]pyridin-3-ol], the half-maximal inhibitory concentration (IC50) is 36 nM.

Regarding `COCOc1cncc(-c2nc(N3CCOCC3)c3cnn(C4CCN(Cc5ccccc5)CC4)c3n2)c1` [Compound 931, 1-(1-benzylpiperidin-4-yl)-6-[5-(methoxymethoxy)pyridin-3-yl]-4-morpholin-4-yl-1H-pyrazolo[3,4-d]pyrimidine], the 50% inhibitory concentration (IC50) is 2000 nM.

On to `Nc1ccc(-c2nc(N3CCOCC3)c3cnn(C4CCCCO4)c3n2)cc1` (centres unmarked) [Compound 934, 4-[4-morpholin-4-yl-1-(tetrahydro-2H-pyran-2-yl)-1H-pyrazolo[3,4-d]pyrimidin-6-yl]aniline], for which the IC50 stood at 4920 nM.

`CNC(=O)Nc1ccc(-c2nc(N3CCOCC3)c3cnn(C4CCCCO4)c3n2)cc1` (centres unmarked) [Compound 935, 1-methyl-3-{4-[4-morpholin-4-yl-1-(tetrahydro-2H-pyran-2-yl)-1H-pyrazolo[3,4-d]pyrimidin-6-yl]phenyl}urea]: the IC50 is 118 nM.

Turning to `c1ccc(CN2CCC(n3ncc4c(N5CCOCC5)nc(-c5ccc6ncccc6c5)nc43)CC2)cc1` [Compound 937, 6-[1-(1-benzylpiperidin-4-yl)-4-morpholin-4-yl-1H-pyrazolo[3,4-d]pyrimidin-6-yl]quinoline], the IC50 stood at 466 nM.

Consider `CN(C)CC=CC(=O)N1CCC(n2ncc3c(N4CCOCC4)nc(-c4ccc5[nH]ccc5c4)nc32)CC1` [Compound 957, 4-{4-[6-(1H-indol-5-yl)-4-morpholin-4-yl-1H-pyrazolo[3,4-d]pyrimidin-1-yl]piperidin-1-yl}-N,N-dimethyl-4-oxobut-2-en-1-amine], for which the half-inhibitory concentration (IC50) came to 480 nM.

With `CN(C)CC(=O)Nc1ccc(-c2nc(N3CCOCC3)c3cn[nH]c3n2)cc1` [Compound 958, N2,N2-dimethyl-N-[4-(4-morpholin-4-yl-1H-pyrazolo[3,4-d]pyrimidin-6-yl)phenyl]glycinamide], the IC50 is 2270 nM.

As for `COC(=O)Nc1ccc(-c2nc(N3CCOCC3)c3cnn(C4CCN(Cc5ccc(F)cc5)CC4)c3n2)cc1` [Compound 959, methyl (4-{1-[1-(4-fluorobenzyl)piperidin-4-yl]-4-morpholin-4-yl-1Hpyrazolo[3,4-d]pyrimidin-6-yl}phenyl)carbamate], the IC50 was 750 nM.

Take `Oc1cccc(-c2nc(N3CCSCC3)c3cnn(-c4ccccc4)c3n2)c1` [Compound 963, 3-(1-phenyl-4-thiomorpholin-4-yl-1H-pyrazolo[3,4-d]pyrimidin-6-yl)phenol]: the IC50 worked out at 1620 nM.

In the case of `Oc1cccc(-c2nc(N3CCOCC3)c3c(F)nn(-c4ccccc4)c3n2)c1` [Compound 964, 3-(3-fluoro-4-morpholin-4-yl-1-phenyl-1H-pyrazolo[3,4-d]pyrimidin-6-yl)phenol], the IC50 was 70 nM.

With `c1ccc(CN2CCC(n3ncc4c(N5CCOCC5)nc(-c5ccc6c(c5)OCO6)nc43)CC2)cc1` [Example 33], the IC50 is 1160 nM.

As for `c1cc2cc(-c3nc(N4CCOCC4)c4cnn(C5CCNCC5)c4n3)ccc2[nH]1` [Example 46], the half-inhibitory concentration (IC50) amounted to 1310 nM.

Turning to `CC(=O)Nc1ccc(-c2nc(N3CCOCC3)c3cnn(C4CCN(Cc5cccnc5)CC4)c3n2)cc1` [Example 158, N-(4-{4-morpholin-4-yl-1-[1-(pyridin-3-ylmethyl)piperidin-4-yl]-1H-pyrazolo[3,4-d]pyrimidin-6-yl}phenyl)acetamide], the IC50 was determined as 404 nM.

Turning to `CC(=O)Nc1ccc(-c2nc(N3CCOCC3)c3cnn(C4CCN(C(=O)c5cccnc5)CC4)c3n2)cc1` [Example 221, N-(4-{4-morpholin-4-yl-1-[1-(pyridin-3-ylcarbonyl)piperidin-4-yl]-1H-pyrazolo[3,4-d]pyrimidin-6-yl}phenyl)acetamide], the IC50 is 878 nM.

`COC(=O)Nc1ccc(-c2nc(N3CCOCC3)c3cnn(C4CCN(C(=O)c5cccnc5)CC4)c3n2)cc1` [Example 223, methyl (4-{4-morpholin-4-yl-1-[1-(pyridin-3-ylcarbonyl)piperidin-4-yl]-1H-pyrazolo[3,4-d]pyrimidin-6-yl}phenyl)carbamate]: the IC50 is 514 nM.

As for `CNC(=O)Nc1ccc(-c2nc(N3CCOCC3)c3cnn(C4CCN(C(=O)c5cccnc5)CC4)c3n2)cc1` [Example 226, 1-methyl-3-(4-{4-morpholin-4-yl-1-[1-(pyridin-3-ylcarbonyl)piperidin-4-yl]-1H-pyrazolo[3,4-d]pyrimidin-6-yl}phenyl)urea], the concentration for half-maximal inhibition (IC50) turned out to be 548 nM.

On to `CNC(=O)Nc1ccc(-c2nc(N3CCOCC3)c3cnn(C4CCCCO4)c3n2)cc1` (centres unmarked) [Example 235, 1-methyl-3-{4-[4-morpholin-4-yl-1-(tetrahydro-2H-pyran-2-yl)-1H-pyrazolo[3,4-d]pyrimidin-6-yl]phenyl}urea], for which the concentration for half-maximal inhibition (IC50) was 4920 nM.

As to `CNC(=O)Nc1ccc(-c2nc(N3CCOCC3)c3cn[nH]c3n2)cc1` [Example 236, 1-methyl-3-[4-(4-morpholin-4-yl-1H-pyrazolo[3,4-d]pyrimidin-6-yl)phenyl]urea], the 50% inhibitory concentration (IC50) amounted to 105 nM.

With `Nc1ccc(-c2nc(N3CCOCC3)c3cn[nH]c3n2)cc1` [Example 285, 4-(4-morpholin-4-yl-1H-pyrazolo[3,4-d]pyrimidin-6-yl)aniline], the IC50 turned out to be 1610 nM.

With `CNC(=O)Nc1ccc(-c2nc(N3CCOCC3)c3cnn(-c4ccccc4)c3n2)cc1` [Example 297, 1-methyl-3-[4-(4-morpholin-4-yl-1-phenyl-1H-pyrazolo[3,4-d]pyrimidin-6-yl)phenyl]urea], the IC50 is 51 nM.

For `CNC(=S)Nc1ccc(-c2nc(N3CCOCC3)c3cnn(C4CCN(Cc5ccccc5)CC4)c3n2)cc1` [Example 325, 1-{4-[1-(1-benzylpiperidin-4-yl)-4-morpholin-4-yl-1H-pyrazolo[3,4-d]pyrimidin-6-yl]phenyl}-3-methylthiourea], the half-inhibitory concentration (IC50) was determined as 71 nM.

For `CNC(=O)Nc1ccc(-c2nc(N3CCOCC3)c3cnn(C4CCN(C(=O)c5ccc[n+]([O-])c5)CC4)c3n2)cc1` [Example 328, 1-methyl-3-[4-(4-morpholin-4-yl-1-{1-[(1-oxidopyridin-3-yl)carbonyl]piperidin-4-yl}-1H-pyrazolo[3,4-d]pyrimidin-6-yl)phenyl]urea], the half-inhibitory concentration (IC50) was found to be 198 nM.

As for `O=C(Nc1ccccc1)Nc1ccc(-c2nc(N3CCOCC3)c3cnn(C4CCN(C(=O)c5cccnc5)CC4)c3n2)cc1` [Example 343, 1-(4-{4-morpholin-4-yl-1-[1-(pyridin-3-ylcarbonyl)piperidin-4-yl]-1H-pyrazolo[3,4-d]pyrimidin-6-yl}phenyl)-3-phenylurea], the IC50 is 14 nM.

With `CNC(=O)Nc1ccc(-c2nc(N3CCOCC3)c3cnn(C4CCN(Cc5ccccc5)CC4)c3n2)cc1F` [Example 348, 1-{4-[1-(1-benzylpiperidin-4-yl)-4-morpholin-4-yl-1H-pyrazolo[3,4-d]pyrimidin-6-yl]-2-fluorophenyl}-3-methylurea], the IC50 came to 199 nM.

On to `CNC(=O)Nc1ccc(-c2nc(N3CCOCC3)c3cnn(C4CCN(C(=O)c5ccccc5F)CC4)c3n2)cc1` [Example 354, 1-(4-{1-[1-(2-fluorobenzoyl)piperidin-4-yl]-4-morpholin-4-yl-1H-pyrazolo[3,4-d]pyrimidin-6-yl}phenyl)-3-methylurea], for which the half-inhibitory concentration (IC50) came to 80 nM.

Turning to `CCNC(=O)Nc1ccc(-c2nc(N3CCOCC3)c3cnn(C4CCN(Cc5cccnc5)CC4)c3n2)cc1F` [Example 372, 1-ethyl-3-(2-fluoro-4-{4-morpholin-4-yl-1-[1-(pyridin-3-ylmethyl)piperidin-4-yl]-1H-pyrazolo[3,4-d]pyrimidin-6-yl}phenyl)urea], the IC50 turned out to be 424 nM.

`CNC(=O)Nc1ccc(-c2nc(N3CCOCC3)c3cnn(C4CCN(C(=O)c5ccncc5)CC4)c3n2)cc1` [Example 417, 1-{4-[1-(1-isonicotinoylpiperidin-4-yl)-4-morpholin-4-yl-1H-pyrazolo[3,4-d]pyrimidin-6-yl]phenyl}-3-methylurea]: the IC50 stood at 160 nM.

Turning to `COC(=O)Nc1ccc(-c2nc(N3CCOCC3)c3cnn(C4CCN(C(=O)c5cnccc5C)CC4)c3n2)cc1` [Example 440, methyl [4-(1-{1-[(4-methylpyridin-3-yl)carbonyl]piperidin-4-yl}-4-morpholin-4-yl-1H-pyrazolo[3,4-d]pyrimidin-6-yl)phenyl]carbamate], the IC50 amounted to 2500 nM.

As for `CNC(=O)Nc1ccc(-c2nc(N3CCOCC3)c3cnn(C4CCN(C(=O)c5cccnc5)CC4)c3n2)c(F)c1` [Example 461, 1-(3-fluoro-4-{4-morpholin-4-yl-1-[1-(pyridin-3-ylcarbonyl)piperidin-4-yl]-1H-pyrazolo[3,4-d]pyrimidin-6-yl}phenyl)-3-methylurea], the IC50 came to 887 nM.

For `CNC(=O)Nc1cc(F)c(-c2nc(N3CCOCC3)c3cnn(C4CCN(C(=O)c5cccnc5)CC4)c3n2)cc1F` [Example 465, 1-(2,5-difluoro-4-{4-morpholin-4-yl-1-[1-(pyridin-3-ylcarbonyl)piperidin-4-yl]-1H-pyrazolo[3,4-d]pyrimidin-6-yl}phenyl)-3-methylurea], the IC50 came to 1540 nM.
